Measurements from patent publication US12006330B2, “Substituted macrocyclic compounds and related methods of treatment” (Alkermes, Inc., priority 2020, dated 2024).

Columns and labels:
[1] = Hepatocytes stability assay (human hepatocytes); type: in vitro ADME; conditions: both sexes, human, cryopreserved hepatocytes, cryopreserved human hepatocytes (pool of 50 mixed gender); 1 μM test compound; 1×10^6 cell/mL; 37 degrees C; read-out: CLint (μL/min/million cells)
Outline: (§1)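 Compound at 1 μM (0.1% DMSO) was incubated with cryopreserved pooled human hepatocytes, 1×10^6 cells/mL in Krebs-Henseleit buffer, at 37 °C, sampled up to 240 min. Parent depletion by LC-MS/MS; half-life from first-order decay gave CLint, scaled to hepatic clearance by well-stirred model (fu assumed 1) and extraction ratio.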

human hepatocytes = experiment: Hepatocytes stability assay (human hepatocytes); type: in vitro ADME; conditions: human hepatocytes; scaled hepatic clearance divided by liver blood flow (well-stirred model, fu assumed unity)
Outline: as §1

MDR1 = experiment: MDCK-MDR1 permeability assay; type: in vitro ADME; conditions: dog, MDCK-MDR1, MDCK-MDR1 cells; for efflux ratio at 2 h, 3 μM: Papp B→A divided by Papp A→B, read-out: Efflux ratio (ER); for Papp A→B at 2 h, 3 μM: test compound 3 μM, 2 hours at 37 degrees C, apical to basolateral
Outline: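 Test compound at 3 μM in HBSS was dosed apical-to-basolateral (with 100 μM Lucifer Yellow) and basolateral-to-apical across MDCK-MDR1 monolayers at 37 °C for 2 h. Receiver and donor samples were quantified by LC-MS/MS. Papp = dQ/dt×1/A×C0, efflux ratio = Papp(B→A)/Papp(A→B), and percent recovery was also derived.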

[2] = target: T1, human orexin-2 receptor (OX2R) (Homo sapiens, UniProt O43614); experiment: Human OX2R IP1 assay; type: cell-based; conditions: T-Rex CHO cells stably overexpressing human OX2R; IP1 accumulation; 1 hr at 37 degrees C; mean EC50
T1 construct: expressed in transfected cells
T1 sequence (O43614 1-444): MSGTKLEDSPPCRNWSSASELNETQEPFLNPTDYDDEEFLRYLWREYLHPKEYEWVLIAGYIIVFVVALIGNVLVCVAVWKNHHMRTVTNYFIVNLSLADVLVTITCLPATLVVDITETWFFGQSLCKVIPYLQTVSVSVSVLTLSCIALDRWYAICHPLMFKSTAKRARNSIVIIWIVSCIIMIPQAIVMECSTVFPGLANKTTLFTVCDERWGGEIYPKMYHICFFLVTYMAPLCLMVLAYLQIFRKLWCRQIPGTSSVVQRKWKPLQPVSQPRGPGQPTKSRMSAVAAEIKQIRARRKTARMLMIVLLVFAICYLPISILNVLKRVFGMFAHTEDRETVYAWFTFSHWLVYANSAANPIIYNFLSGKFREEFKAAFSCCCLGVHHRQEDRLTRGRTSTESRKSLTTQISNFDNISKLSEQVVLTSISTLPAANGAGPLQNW
Method: T-Rex CHO cells stably overexpressing the human orexin-2 receptor (OX2R) were induced overnight with 1 μg/mL of doxycycline in a T225 flask. 24 hours post induction, cells were lifted with accutase and plated into a 384-well proxy plate at 30,000 cells/well. Cells were then treated with different test compounds in 1× stimulation buffer containing 10 mM Hepes, 1 mM CaCl2), 0.5 mM MgCl2, 4.2 mM KCl, 146 mM NaCl, 5.5 mM glucose, and 50 mM LiCl, pH 7.4, for 1 hr at 37 degrees C. Following incubation, the reaction was terminated by the addition of detection mix, which is composed of IP1-d2 and anti-IP1-cryptate diluted in lysis buffer as well as 1× stimulation buffer. The plates were allowed to incubate for 1 hour at room temperature and were then read in the EnVision® multimode plate reader, measuring inositol phosphate levels.
Cisbio IP1 is a cell-based functional assay quantifying the accumulation of inositol monophosphate (IP), a metabolite released as a result of orexin 2 receptor activation through the phospholipase C-Gq signaling pathway. This is a competitive immunoassay in which the IP1 produced by the cells upon receptor activation competes with the IP1 analog coupled to the d2 fluorophore (acceptor) for binding to an anti-IP1 monoclonal antibody labeled with Eu cryptate (donor). The measured HTRF-FRET based signal is inversely proportional to the IP1 concentration produced.
The EC50 values reported in Table 2 were obtained according to the human OX2R IP1 assay described above. Data are the mean EC50 values S.E.M. Reference Compound A is methyl (2R,3S)-3-((methylsulfonyl)amino)-2-(((cis-4-phenylcyclohexyl)oxy)methyl)-piperidine-1-carboxylate (Example 5 of PCT publication No. WO2017/135306). Reference Compound B is N-((2S,3S)-1-(2-hydroxy-2-methylpropanoyl)-2-((2,3′,5′-trifluorobiphenyl-3-yl)methyl)pyrrolidin-3-yl)methanesulfonamide (Example 483 of PCT publication No. WO2019/027058).

Sprague-Dawley rats = experiment: Assessment of wake promotion in Sprague-Dawley rats (EEG/EMG); type: in vivo, rat; conditions: male Sprague-Dawley rats; PO; 3 mpk; dosed at ZT5; 6-hour post-dose period
Method: Wake promotion was assessed using electroencephalography (EEG) and electromyography (EMG) in adult male Sprague-Dawley rats. All rats (Charles River Laboratories, Raleigh, NC, USA) were intraperitoneally implanted with telemetry devices (F50-EEE, Data Sciences International Inc., MN, USA) under isoflurane anesthesia. For EEG, stainless steel screws were implanted over frontal cortex and parietal cortex, and reference screws were placed over cerebellum. Additionally, an electrode was placed in neck muscle for EMG. Rats were given carprofen post-surgery and underwent a 7 to 10-day recovery period. Rats habituated to the experimental room for 7 days and were maintained on a 12-hour light-dark cycle.
EEG and EMG data were recorded using the DSI telemetry system and Ponemah software (Data Sciences International Inc., MN, USA). Sleep-wake stages were scored both manually and with Somnivore, a supervised machine learning software platform, in 10 second epochs. Records were visually inspected as needed post-processing.
All test compounds were dissolved in 5% DMSO and suspended in 95% saline with 0.5% methylcellulose and 0.5% tween. […] Unless otherwise indicated, all compounds were dosed orally. Recordings for each rat were initiated immediately after dosing and lasted for 6 hours post-dose.
Two key endpoints include wakefulness time and cortical activation time. Wakefulness time is derived from the sleep-wake stage analysis. Cortical activation time is based on the duration in which frontal gamma oscillatory activity (30-100 Hz), a key feature of wakefulness, was elevated relative to a pre-treatment baseline. Mean cortical activation time was computed relative to vehicle treatment for the 6-hour post-dose period.

SMILES	hepatocyte CLint at 1 μM [1] [µL/min/1e6 cells]	Extraction Ratio (ER) (human hepatocytes)	efflux ratio at 2 h, 3 μM (MDR1)	Papp A→B at 2 h, 3 μM (MDR1) [×10⁻⁶ cm/s]	EC50 [2] [nM]	Mean cortical activation time (% vehicle treatment) (Sprague-Dawley rats)
CC[C@H]1Oc2ccccc2[C@H]2CC[C@H](CC2)OCC2[C@@H](NS(C)(=O)=O)CCCN2C1=O (stereo in doubt) [Compound 85]	37	0.84	97	0.45	< 10	–
O=C1COc2ccccc2[C@H]2CC[C@H](CC2)OCC2[C@@H](NS(=O)(=O)CF)CCCN12 (stereo in doubt) [Compound 38]	18	0.73	35	1.32	< 10	–
O=C1COc2nccnc2[C@H]2CC[C@H](CC2)OCC2[C@@H](NS(=O)(=O)C3CC3)CCCN12 (stereo in doubt) [Compound 65]	< 1.9	<0.22	> 100	0.1	–	121.28
Cc1ccnc2c1[C@H]1CC[C@H](CC1)OCC1[C@@H](NS(=O)(=O)C3CCOC3)CCCN1C(=O)CO2 (stereo in doubt) [Compound 89]	12	0.64	49	0.56	< 10	–
CC[C@@H]1Oc2ccccc2[C@H]2CC[C@H](CC2)OCC2[C@@H](NS(C)(=O)=O)CCCN2C1=O (stereo in doubt) [Compound 84]	31	0.82	100	0.43	< 10	–
O=C1COc2ccccc2C2CCC(CC2)OC[C@H]2[C@@H](NS(=O)(=O)C3CC3)CCCN12 (stereo in doubt) [Compound 1]	31	0.82	6.7	1.6	–	160.00
O=C1COc2ccccc2C2CCC(CC2)OC[C@H]2[C@@H](NS(=O)(=O)C(F)(F)F)CCCN12 (stereo in doubt) [Compound 11]	4.2	0.38	52	1.6	–	411.43
C[C@@H]1CCN2C(=O)COc3ccccc3[C@H]3CC[C@H](CC3)OCC2[C@H]1NS(C)(=O)=O (mixture of isomers) [Compound 36]	17	0.71	> 100	0.3	< 10	–
Cc1cccc2c1C1CCC(CC1)OC[C@H]1[C@@H](NS(C)(=O)=O)CCCN1C(=O)CO2 (stereo in doubt) [Compound 2]	28	0.80	46	0.69	–	182.50
CS(=O)(=O)N[C@H]1CCCN2C(=O)[C@H](CO)Oc3ccccc3[C@H]3CC[C@H](CC3)OCC12 (stereo in doubt) [Compound 61]	6.9	0.51	> 100	< 0.034	< 10	–
CS(=O)(=O)N[C@H]1CCCN2C(=O)COc3ccc(O)cc3[C@H]3CC[C@H](CC3)OCC12 (stereo in doubt) [Compound 96]	2.3	0.25	9.2	0.53	–	74.48
O=C1COc2ccccc2[C@H]2CC[C@H](CC2)OCC2[C@@H](NS(=O)(=O)C3CCOC3)CCCN12 (stereo in doubt) [Compound 22]	13	0.66	> 100	0.18	< 10	–
CC[C@H](C)S(=O)(=O)N[C@H]1CCCN2C(=O)COc3ccccc3C3CCC(CC3)OC[C@@H]12 (stereo in doubt) [Compound 21]	36	0.84	52	0.8	< 10	–
C[C@@H]1C[C@H](NS(C)(=O)=O)[C@@H]2CO[C@H]3CC[C@H](CC3)c3ccccc3OCC(=O)N12 [Compound 103]	41	0.86	28	1.4	10 to 1000	–
CS(=O)(=O)N[C@H]1CCCN2C(=O)[C@@H](CO)Oc3ccccc3[C@H]3CC[C@H](CC3)OCC12 (stereo in doubt) [Compound 60]	3.7	0.36	> 100	0.041	< 10	–
C[C@H](C(F)(F)F)S(=O)(=O)N[C@H]1CCCN2C(=O)COc3ccccc3C3CCC(CC3)OC[C@@H]12 (stereo in doubt) [Compound 23]	30	0.82	87	0.44	< 10	–
CS(=O)(=O)N[C@H]1CCCN2C(=O)COc3ccccc3[C@H]3CC[C@@H](OCC12)[C@H](O)C3 (stereo in doubt) [Compound 45]	< 1.9	<0.22	> 5.3	< 0.14	10 to 1000	–
CC[C@@H](C)S(=O)(=O)N[C@H]1CCCN2C(=O)COc3ccccc3C3CCC(CC3)OC[C@@H]12 (stereo in doubt) [Compound 25]	35	0.84	27	0.62	< 10	–
C[C@@H](C(F)(F)F)S(=O)(=O)N[C@H]1CCCN2C(=O)COc3ccccc3C3CCC(CC3)OC[C@@H]12 (stereo in doubt) [Compound 24]	28	0.81	43	0.65	< 10	–
